Where two headings read alike, the source gives them in different places.
Experiments:
HUT78 cells = test: Cell viability assay using HUT78 cells in a CELLTITER-GLO assay; format: cell-based, human
Description: Compound (1) and FK-228 (an anticancer agent used in CTCL) were tested in a cell viability assay using HUT78 cells in a CELLTITER-GLO® assay. […] See, FIG. 1B.
Compound (2) (FIG. 8A) was tested in a cell viability assay using HUT78 cells in a CELLTITER-GLO® assay. To determine IC50 value of Compound (2) against human CTCL HUT78 cells, viability assay was performed using CELLTITER-GLO® Reagent as described by the supplier (Promega, Madison, WI). Briefly, cells (7500/well) were seeded in opaque 96-well plates and exposed to Compound (1) in a dose-dependent manner for 72 h at 37° C. in 5% CO2. After 72 h treatment with compound (1), CELLTITER-GLO® Reagent ([…]) was added to 96-well plates. Viable cells which are metabolically active are directly proportional to the ATP present. Luminescent signals correlate with the amount of ATP present in cells. After 10 min incubation with CELLTITER-GLO® Reagent, luminescence was measured at an integration time of 1 second/well using an automated BMG plate reader. Dimethyl sulfoxide (DMSO) was used as the vehicle control. Each experiment was conducted in triplicate. IC50 values were determined using CalcuSyn software (Biosoft).

HUT78 CTCL cells [1] = test: Carboxy-fluorescein succinimidyl ester (CFSE) staining cell proliferation assay; format: cell-based, human; settings: 1.0, 10 or 100 nM, incubated 72 h
Description: Compound (1) was tested in a carboxy-fluorescein succinimidyl ester (CFSE) stained HUT78 CTCL proliferation assay. HUT78 cells were stained with CFSE dye. The CFSE stained cells were plated into 96-well plates in growth medium. The resulted cells were treated with 1.0, 10, or 100 nM solution of compound (1), and then incubated for 72 h under the growth conditions. After, optical densities were read on a multiwell scanning spectrophotometer at wavelength 488 nm.

HUT78 CTCL cells [2] = system: HUT78 CTCL cells
Description: Compound (1) was tested in a cell proliferation assay using HUT78 CTCL cells. The cells were treated with 0.3, 1, 3, 10, 30, or 100 nM concentration of compound (1), and then incubated for 48 h or 72 h under the growth conditions. […] Cells cultured in the absence of compound (1) served as a control.

HUT78 CTCL cells [3] = test: Cell apoptosis assay using HUT78 CTCL cells; format: cell-based, human; settings: incubated 72 h, read-out: IC50, apoptosis induction
Description: Compound (1) was tested in a cell apoptosis assay using HUT78 CTCL cells.

[4] = system: HUT78 CTCL mouse xenograft; test: HUT78 CTCL mouse xenograft model; format: in vivo; settings: for Drug associated toxicity observed in mice: compound (1) 20 mg/kg gavage, FK-228 2 mg/kg intraperitoneal twice weekly
Description: Compound (1) and FK-228 were tested for tumor growth inhibition in CTCL mouse xenograft models. One group of mice was treated with 20 mg/kg of compound (1) using gavage during 3 consecutive days, followed by 3 consecutive days of break. Another group of mice was treated with 2 mg/kg of FK-228 intraperitoneal, twice weekly. Mice with no treatment served as a control. The tumor volume, size, and weight were compared 12 days after the treatments started.

SMILES	IC50 (HUT78 cells; Homo sapiens) [nM]	IC50 (HUT78 cells) [nM]	Inhibition of proliferation of CFSE stained HUT78 CTCL cells (HUT78 CTCL cells [1])	IC50 (HUT78 CTCL cells [2]; read-out: IC50, cell proliferation, incubated 48 h) [nM]	IC50 (HUT78 CTCL cells [2]; read-out: IC50, cell proliferation, incubated 72 h) [nM]	IC50 (HUT78 CTCL cells [3]) [nM]	Reduction of the tumor size ([4]; 20 mg/kg gavage, 3 consecutive days on, 3 days break, 12 days after treatment start)	Tumor weight inhibition ([4]; 20 mg/kg gavage, 3 consecutive days on, 3 days break, 12 days after treatment start, P<0.001) [%]	Tumor growth inhibition (tumor volume) ([4]; 20 mg/kg gavage, 3 consecutive days on, 3 days break, compared 12 days after treatment start, versus FK-228 regimen and vehicle)	Drug associated toxicity observed in mice [4]
C/C=C1\NC(=O)[C@H]2CSSCC/C=C/[C@H](CC(=O)N[C@H](C(C)C)C(=O)N2)OC(=O)[C@H](C(C)C)NC1=O [FK-228, Romidepsin, reference compound]	6.95	–	–	–	–	–	–	–	–	–
CN1C(=O)[C@@]23C[C@](C)(C#N)[C@H](c4ccc5c(c4)OCO5)N2C(=O)C1(C)S3=S (some centres unmarked) [compound (1)]	–	6.61	inhibits proliferation of HUT78 CTCL cells	75	10	19.7	results in the reduction of the tumor size	89.8	results in tumor growth inhibition	no toxicity was observed
C/C=C1\NC(=O)[C@H]2CSSCC/C=C/[C@H](CC(=O)N[C@H](C(C)C)C(=O)N2)OC(=O)[C@H](C(C)C)NC1=O [romidespin, romidepsin, reference compound]	–	–	–	–	–	–	–	–	–	Ascites and diarrhea
